Test system: Spontaneously Hypertensive Rats (SHR)
Assay: In vivo test of anti-hypertensive properties: systolic blood pressure by plethysmography in conscious SHR after gavage
Design: species or system rat
Conditions: gavage 2 ml of product (Enalapril 20 mg/kg in milk)
Experimental: Strains were streaked on MRS agar and incubated anaerobically for 48 h at 37° C. A single colony was picked, inoculated into MRS broth and grown overnight at 37° C. Stock cultures were prepared from this overnight culture and were stored at −80° C. in 20% glycerol. The strains were precultivated in milk overnight and inoculated 1% (v/v) in fresh milk for the fermentation.
The milk was fermented with the strains of single or mixed cultures for 16 hours with an inoculation level of 1% (v/v). The total product was freeze-dried. A second fermentation, with the same conditions as the first one, was centrifuged. The pellet was discarded and the whey was filtered through a […] filter and frozen. The whey was used to solubilize the freeze-dried powder to concentrate it with a factor 5 before feeding the rats.
Spontaneously Hypertensive Rats (SHR) was obtained from IFFA CREDO (a Charles River company), Lyon, France. […]
Systolic blood pressure was determined by plethysmography in conscious SHR before as well as […] after gavages, at the different times described below. […]
Systolic blood pressure of Group 1 was determined parallel to those of groups 2 and 3 and serves as control.
The day of the gavage systolic blood pressure was determined before as well as 6 and 24 hours after gavage.

**Q.** CCOC(=O)[C@H](CCc1ccccc1)N[C@@H](C)C(=O)N1CCC[C@H]1C(=O)O [Enalapril] was tested. Which “variation of systolic blood pressure” value (5 hours after administration) did it give?
**A.** −30

**Q.** What about the “variation of systolic blood pressure” value (24 hours after administration) of the same molecule?
**A.** −17
